# Literature values, collected in paper PMC7395068, “The evolution of strategies to minimise the risk of human drug-induced liver injury (DILI) in drug discovery and development” (Archives of Toxicology, 2020).
# Like-named read-outs stand apart in the source and are kept apart here. Where a SMILES comes first, the peptide text is derived from it. [ ]: non-standard residue; d: D form. The star is where a group is joined. dPhe(4-NHCONH2) = NC(=O)Nc1ccc(C[C@@H](N)C(=O)O)cc1; Dihydroorotyl(S) = O=C1C[C@@H](C(=O)*)NC(=O)N1; dPhe(4-Cl) = N[C@H](Cc1ccc(Cl)cc1)C(=O)O; Phe(4-NH2) = Nc1ccc(C[C@H](N)C(=O)O)cc1; d2Nal = N[C@H](Cc1ccc2ccccc2c1)C(=O)O; Lys(iPr) = CC(C)NCCCC[C@H](N)C(=O)O; d3Pal = N[C@H](Cc1cccnc1)C(=O)O
# Details: cited from earlier work
# [1] = binary in vivo DILI call given beside the severity category, ref Chen 2016
# [2] = human DILI concern category (LTKB DILIrank), ref Chen 2016
# [3] = binary in vivo human DILI call, ref Chen 2016
# [4] = human DILI, LTKB DILIrank category, ref Chen 2016
# [5] = LTKB DILIrank category, ref Chen 2016
# [6] = binary human DILI assignment, ref Chen 2016
# [7] = binary DILI call, ref Chen 2016
compound,measurement,setting,value
C[C@H](O)[C@H](O)[C@H]1CNc2nc(N)[nH]c(=O)c2N1 [tetrahydrobiopterin],"DILI +VE (5-8), DILI -VE (-4)",[1],-VE
same,DILI severity category,[2],vNo-DILI-Concern
CC(=O)N[C@H](Cc1ccc2ccccc2c1)C(=O)N[C@H](Cc1ccc(Cl)cc1)C(=O)N[C@H](Cc1cccnc1)C(=O)N[C@@H](CO)C(=O)N[C@@H](Cc1ccc(NC(=O)[C@@H]2CC(=O)NC(=O)N2)cc1)C(=O)N[C@H](Cc1ccc(NC(N)=O)cc1)C(=O)N[C@@H](CC(C)C)C(=O)N[C@@H](CCCCNC(C)C)C(=O)N1CCC[C@H]1C(=O)N[C@H](C)C(N)=O [degarelix] (Ac-[d2Nal][dPhe(4-Cl)][d3Pal]S[Phe(4-NH2)](Dihydroorotyl(S))[dPhe(4-NHCONH2)]L[Lys(iPr)]P[dA]-NH2),"DILI +VE (5-8), DILI -VE (-4)",[3],-VE
same,DILI severity category,[4],Ambiguous DILI-concern
O=C(CCCCCCC(=O)Nc1ccccc1)NO [vorinostat],DILI severity category,[5],vNo-DILI-Concern
same,"DILI +VE (5-8), DILI -VE (-4)",[6],-VE
CO/N=C(\C(=O)N[C@@H]1C(=O)N2C(C(=O)[O-])=C(C[N+]3(C)CCCC3)CS[C@H]12)c1csc(N)n1 [cefepime],"DILI +VE (5-8), DILI -VE (-4)",in vivo,+VE
same,DILI severity category,in vivo,vLess-DILI-Concern
CCCCCCCCCC(=O)O[C@H]1CC[C@H]2[C@@H]3CCC4=CC(=O)CC[C@@H]4[C@H]3CC[C@]12C [nandrolone decanoate],"DILI +VE (5-8), DILI -VE (-4)",[1],+VE
same,DILI severity category,[2],vMost-DILI-Concern
NCCS [cysteamine],"DILI +VE (5-8), DILI -VE (-4)",[3],-VE
same,DILI severity category,[4],Ambiguous DILI-concern
COC(=O)[C@@H]1CC2=CC(=O)CC[C@]2(C)[C@@]23O[C@@H]2C[C@@]2(C)[C@@H](CC[C@@]24CCC(=O)O4)[C@H]13 [eplerenone],"DILI +VE (5-8), DILI -VE (-4)",[3],-VE
same,DILI severity category,[4],Ambiguous DILI-concern
"corticotropin (SYSMEHFRWGKPVGKKRRPVKVYPNGAEDESAEAFPLEF; Corticotropin; UniProt P01189 138-176, looked up)","DILI +VE (5-8), DILI -VE (-4)",[3],-VE
same,DILI severity category,[4],vNo-DILI-Concern
"pramlintide (KCNTATCATQRLANFLVHSSNNFGPILPPTNVGSNTY; chains of the INN, looked up)","DILI +VE (5-8), DILI -VE (-4)",in vivo,-VE
same,DILI severity category,in vivo,vNo-DILI-Concern
C=CCN1C[C@H](C(=O)N(CCCN(C)C)C(=O)NCC)C[C@@H]2c3cccc4[nH]cc(c34)C[C@H]21 [cabergoline],DILI severity category,[5],vNo-DILI-Concern
same,"DILI +VE (5-8), DILI -VE (-4)",[7],-VE
C[N+](C)(C)CCOC(=O)CCC(=O)OCC[N+](C)(C)C [succinylcholine],"DILI +VE (5-8), DILI -VE (-4)",[1],-VE
same,DILI severity category,[2],vNo-DILI-Concern
NC(=O)C[S@@+]([O-])C(c1ccccc1)c1ccccc1 [armodafinil],DILI severity category,[5],Ambiguous DILI-concern
same,"DILI +VE (5-8), DILI -VE (-4)",[7],-VE
CC1Cc2ccccc2N1NC(=O)c1ccc(Cl)c(S(N)(=O)=O)c1 (stereo not shown) [indapamide],"DILI +VE (5-8), DILI -VE (-4)",[3],-VE
same,DILI severity category,[4],Ambiguous DILI-concern
CO/N=C(\C(=O)N[C@@H]1C(=O)N2C(C(=O)O)=CCS[C@H]12)c1csc(N)n1 [ceftizoxime],DILI severity category,[5],Ambiguous DILI-concern
same,"DILI +VE (5-8), DILI -VE (-4)",[7],-VE
CN1CCC(Nc2ncc3ncnc(Nc4ccc(F)c(Cl)c4)c3n2)CC1 [falnidamol],"DILI +VE (5-8), DILI -VE (-4)",in vivo,+VE
same,DILI severity category,in vivo,vMost-DILI-Concern
urokinase,"DILI +VE (5-8), DILI -VE (-4)",in vivo,-VE
same,DILI severity category,in vivo,vNo-DILI-Concern
C[C@H](N)Cc1ccccc1 [dextroamphetamine],"DILI +VE (5-8), DILI -VE (-4)",in vivo,-VE
same,DILI severity category,in vivo,vNo-DILI-Concern
CN1CCCC(CN2c3ccccc3Sc3ccccc32)C1 (stereo not shown) [mepazine],"DILI +VE (5-8), DILI -VE (-4)",[3],+VE
same,DILI severity category,[4],vMost-DILI-Concern
bleomycin,DILI severity category,[5],Ambiguous DILI-concern
same,"DILI +VE (5-8), DILI -VE (-4)",[7],-VE
NS(=O)(=O)c1cc(C2(O)NC(=O)c3ccccc32)ccc1Cl (stereo not shown) [chlorthalidone],DILI severity category,[5],Ambiguous DILI-concern
same,"DILI +VE (5-8), DILI -VE (-4)",[7],-VE
CN1C(=O)CCS(=O)(=O)C1c1ccc(Cl)cc1 (stereo not shown) [chlormezanone],"DILI +VE (5-8), DILI -VE (-4)",in vivo,+VE
same,DILI severity category,in vivo,vMost-DILI-Concern
Cc1cccc([C@H](C)c2cnc[nH]2)c1C [dexmedetomidine],"DILI +VE (5-8), DILI -VE (-4)",[3],-VE
same,DILI severity category,[4],Ambiguous DILI-concern
CC(=O)Oc1ccccc1C(=O)Nc1ncc([N+](=O)[O-])s1 [nitazoxanide],"DILI +VE (5-8), DILI -VE (-4)",[1],-VE
same,DILI severity category,[2],vNo-DILI-Concern
O=C1Cc2cc(CCN3CCN(c4nsc5ccccc45)CC3)c(Cl)cc2N1 [ziprasidone],DILI severity category,[5],vLess-DILI-Concern
same,"DILI +VE (5-8), DILI -VE (-4)",[6],+VE
CN(C)CCC[C@@]1(c2ccc(F)cc2)OCc2cc(C#N)ccc21 [escitalopram],"DILI +VE (5-8), DILI -VE (-4)",in vivo,+VE
same,DILI severity category,in vivo,vLess-DILI-Concern
C/C(=N\O)C(C)NCC(C)(C)CNC(C)/C(C)=N/O (stereo not shown) [exametazime],"DILI +VE (5-8), DILI -VE (-4)",[3],-VE
same,DILI severity category,[4],vNo-DILI-Concern
C[C@@H](Cc1ccccc1)NC(=O)[C@@H](N)CCCCN [lisdexamfetamine],"DILI +VE (5-8), DILI -VE (-4)",[3],-VE
same,DILI severity category,[4],Ambiguous DILI-concern
O=C([O-])CN(CCN(CC(=O)[O-])CC(COP(=O)([O-])OC1CCC(c2ccccc2)(c2ccccc2)CC1)N(CC(=O)[O-])CC(=O)[O-])CC(=O)[O-].[Gd+3].[Na+].[Na+].[Na+] (stereo not shown) [gadofosveset trisodium],"DILI +VE (5-8), DILI -VE (-4)",in vivo,-VE
same,DILI severity category,in vivo,vNo-DILI-Concern
FC(F)(F)C(F)(F)C(F)(F)F [perflutren],"DILI +VE (5-8), DILI -VE (-4)",[1],-VE
same,DILI severity category,[2],vNo-DILI-Concern
CC[C@@H](CO)NC(=O)[C@@H]1C=C2c3cccc4c3c(cn4C)C[C@H]2N(C)C1 [methysergide],"DILI +VE (5-8), DILI -VE (-4)",[1],-VE
same,DILI severity category,[2],vNo-DILI-Concern
C#C[C@]1(O)CC[C@H]2[C@@H]3CCC4=CC(=O)CC[C@@H]4[C@H]3C(=C)C[C@@]21CC [etonogestrel],"DILI +VE (5-8), DILI -VE (-4)",[3],-VE
same,DILI severity category,[4],Ambiguous DILI-concern
C[C@]12C=CC(=O)N[C@@H]1CC[C@@H]1[C@@H]2CC[C@]2(C)[C@@H](C(=O)Nc3cc(C(F)(F)F)ccc3C(F)(F)F)CC[C@@H]12 [dutasteride],"DILI +VE (5-8), DILI -VE (-4)",[3],-VE
same,DILI severity category,[4],vNo-DILI-Concern
NCCc1ccc(O)cc1 [tyramine],DILI severity category,[5],vNo-DILI-Concern
same,"DILI +VE (5-8), DILI -VE (-4)",[6],-VE
COc1ccc2[n-]c([S@@+]([O-])Cc3ncc(C)c(OC)c3C)nc2c1.[Na+] [esomeprazole Sodium],"DILI +VE (5-8), DILI -VE (-4)",in vivo,+VE
same,DILI severity category,in vivo,vLess-DILI-Concern
CCC[C@@H]1C[C@@H](C(=O)N[C@@H]([C@H]2O[C@H](SC)[C@H](O)[C@@H](O)[C@H]2O)[C@@H](C)O)N(C)C1 [lincomycin],"DILI +VE (5-8), DILI -VE (-4)",[3],-VE
same,DILI severity category,[4],Ambiguous DILI-concern
CCCCC[C@](C)(O)/C=C/[C@@H]1[C@@H](C/C=C\CCCC(=O)O)[C@@H](O)C[C@H]1O [carboprost tromethamine],DILI severity category,[5],vNo-DILI-Concern
same,"DILI +VE (5-8), DILI -VE (-4)",[7],-VE
CN1C2CCCC1CC(NC(=O)c1nn(C)c3ccccc13)C2 (stereo not shown) [granisetron],"DILI +VE (5-8), DILI -VE (-4)",[3],-VE
same,DILI severity category,[4],Ambiguous DILI-concern
Nc1nc(/C(=C/CC(=O)O)C(=O)N[C@@H]2C(=O)N3C(C(=O)O)=CCS[C@H]23)cs1 [ceftibuten],DILI severity category,[5],Ambiguous DILI-concern
same,"DILI +VE (5-8), DILI -VE (-4)",[7],-VE
CNC[C@H](O)[C@@H](O)[C@H](O)[C@H](O)CO.CNC[C@H](O)[C@@H](O)[C@H](O)[C@H](O)CO.O=C([O-])CN(CCN(CC(=O)[O-])CC(=O)O)CCN(CC(=O)O)C(COCc1ccccc1)C(=O)[O-].[Gd+3] (stereo not shown) [gadobenate dimeglumine],"DILI +VE (5-8), DILI -VE (-4)",in vivo,-VE
same,DILI severity category,in vivo,vNo-DILI-Concern
COc1cc(C(C)=O)ccc1OCCCN1CCC(c2noc3cc(F)ccc23)CC1 [iloperidone],"DILI +VE (5-8), DILI -VE (-4)",[3],-VE
same,DILI severity category,[4],Ambiguous DILI-concern
alglucosidase alfa,"DILI +VE (5-8), DILI -VE (-4)",in vivo,-VE
same,DILI severity category,in vivo,vNo-DILI-Concern
COc1ccc2cc(CCC(C)=O)ccc2c1 [nabumetone],"DILI +VE (5-8), DILI -VE (-4)",[1],-VE
same,DILI severity category,[2],Ambiguous DILI-concern
COc1ccc(C[C@@H]2c3cc(OC)c(OC)cc3CC[N@+]2(C)CCC(=O)OCCCCCOC(=O)CC[N@@+]2(C)CCc3cc(OC)c(OC)cc3[C@H]2Cc2ccc(OC)c(OC)c2)cc1OC [cisatracurium besylate],DILI severity category,[5],vNo-DILI-Concern
same,"DILI +VE (5-8), DILI -VE (-4)",[7],-VE
N=C(N)N [guanidine],"DILI +VE (5-8), DILI -VE (-4)",in vivo,-VE
same,DILI severity category,in vivo,Ambiguous DILI-concern
CSCC[C@H](N)C(=O)O [l-methionine],"DILI +VE (5-8), DILI -VE (-4)",[3],-VE
same,DILI severity category,[4],vNo-DILI-Concern
O=C(O)CCCO [gamma hydroxybutyric acid],"DILI +VE (5-8), DILI -VE (-4)",[3],-VE
same,DILI severity category,[4],vNo-DILI-Concern
CO/N=C(\C(=O)N[C@@H]1C(=O)N2C(C(=O)O)=C(/C=C\c3scnc3C)CS[C@H]12)c1csc(N)n1 [cefditoren],DILI severity category,[5],Ambiguous DILI-concern
same,"DILI +VE (5-8), DILI -VE (-4)",[7],-VE
N[C@@H](CC(=O)N1CCn2c(nnc2C(F)(F)F)C1)Cc1cc(F)c(F)cc1F [sitagliptin],"DILI +VE (5-8), DILI -VE (-4)",[1],+VE
same,DILI severity category,[2],vLess-DILI-Concern
COc1cc2nc(N(C)CCCNC(=O)C3CCCO3)nc(N)c2cc1OC (stereo not shown) [alfuzosin],DILI severity category,[5],vLess-DILI-Concern
CNC(=O)CN(CCN(CCN(CC(=O)[O-])CC(=O)NC)CC(=O)[O-])CC(=O)[O-].[Gd+3] [gadodiamide],"DILI +VE (5-8), DILI -VE (-4)",in vivo,-VE
same,DILI severity category,in vivo,Ambiguous DILI-concern
NCCCNCCSP(=O)(O)O [amifostine],DILI severity category,[5],vNo-DILI-Concern
same,"DILI +VE (5-8), DILI -VE (-4)",[7],-VE
Argipressin,DILI severity category,[5],vNo-DILI-Concern
same,"DILI +VE (5-8), DILI -VE (-4)",[7],-VE
